Results as given in patent EP2740727B1, “Quinazolinone analogues for use as anticonvulsant agents” (King Saud University, priority 2012, dated 2014).
Like-named read-outs stand apart in the source and are kept apart here.

Tests used:
[1] = system: Pentylenetetrazole (PTZ)-induced convulsion; assay: Pentylenetetrazole (PTZ) seizure threshold test; assay type: in vivo, Swiss albino mice; conditions: for ED50: Mus musculus, ip, median effective dose, mice, log-probit method; for % Protection: PTZ 100 mg/kg i.p. 30 min later, 4 animals; for protection against PTZ-induced seizures: dose not given (tested 25, 50, 100 and 200 mg/kg i.p.)
Protocol: Adult male Swiss […] mice (22-28 g), approximately 10-week old, were used to conduct the anticonvulsant evaluation. They were housed in cages and kept at a temperature of 20 ± 2°C and a relative humidity of 55 ± 5% with a light-dark cycle of 12 h and fed with standard diet and water ad libitum. […] A control group of mice was included and received intraperitoneal (i.p.) injections of the test compounds' vehicle. […] Picrotoxin (pic) was freshly dissolved in 1 ml 0.1N warmed HCl and the final volume was made up with 0.9% NaCl.
A single 5 seconds episode of clonic spasms was taken as a threshold seizure.
In each of the chemical and the electrical methods described above, Swiss albino mice were divided into 4 groups (N = 4 animals).

in vivo [2] = conditions: mouse, ip
Protocol: (§1) Median effective (ED50), and median sedative (TD50) were calculated.

in vivo [3] = conditions: mouse, ip; remark: listed apart in the source
Protocol: (§2) The acute toxicity detenninatioii (LD50) for compounds of formula 1 was performed. Compounds were given intraperitoneally (i.p.) in doses ranging from 0.1-5 mmol/kg. […] All behavioral changes and death during the observation periods were recorded. […] The protective index (PI) and therapeutic index (TI) of each compound were calculated.
(§3) Initially the approximate LD50 of each test compound was determined. Albino Swiss mice (25 g body weight) were then divided into 4 groups (6 mice each). […] The animals were then observed closely for 4 hours and then occasionally for 72 hours. The percentage of death in each group was then calculated.

Albino Swiss mice [4] = assay: Acute toxicity determination (LD50); conditions: Therapeutic index = LD50/ED50
Protocol: as §2, §3

motor performance = assay: Minimal neurotoxicity (chimney test), motor performance; conditions: Protective index = TD50/ED50
Protocol: as §1

Albino Swiss mice [5] = conditions: mouse, in vivo, 72 h
Protocol: as §2, §3

SMILES	ED50 [1]	% Protection ([1]; dose 50 mg/Kg i.p. [sic])	protection against PTZ-induced seizures [1]	TD50 (in vivo [2])	LD50 at 72 h (in vivo [3]; Albino Swiss)	TI (Albino Swiss mice [4])	PI (motor performance)	% Protection ([1]; dose 150 mg/Kg i.p.)	TI (Albino Swiss mice [5])	LD50 at 72 h (in vivo [3])
COc1cc2nc(SCC(=O)NN)n(Cc3ccccc3)c(=O)c2cc1OC [Compound 70, 2-(3-Benzyl-6,7-dimethoxy-4-oxo-3,4-dihydro-quinazolin-2-yl-thio)acetohydrazide]	32 mg/kg	100%	100%	149 mg/kg	360 mg/kg	11.25	4.67			
CCC(=O)NNC(=O)CSc1nc2ccc(Cl)cc2c(=O)n1-c1ccccc1 [Compound 89, N'-[2-(6-Chloro-4-oxo-3-phenyl-3,4-dihydro-quinazolin-2yl-thio)acetyl]propionohydrazide]	11.8 mg/kg	100%	100%	100 mg/kg	290 mg/kg	24.6	8.5			
CC(=O)NNC(=O)CSc1nc2ccc(Cl)cc2c(=O)n1Cc1ccccc1 [Compound 105, N'-Acetyl-2-(3-benzyl-6-chloro-4-oxo-3,4-dihydro-quinazolin-2-yl-thio)acetohydrazide]	24.8 mg/kg		100%	215 mg/kg	240 mg/kg	9.7	8.7	100%		
CCC(=O)NNC(=O)CSc1nc2cc(OC)c(OC)cc2c(=O)n1Cc1ccccc1 [Compound 110, N'-(2-(3-Benzyl-6,7-dimethoxy-4-oxo-3,4-dihydro-quinazolin-2-yl-thio)acetyl)propionohydrazide]	32.7 mg/kg		100%	134 mg/kg	168 mg/kg	5.1	4.1	100%		
O=C(CCc1ccccc1)NNC(=O)CSc1nc2ccc(Cl)cc2c(=O)n1Cc1ccccc1 [Compound 115, N'-(2-(3-Benzyl-6-chloro-4-oxo-3,4-dihydro-quinazolin-2-yl-thio)acetyl)-3-phenylpropanehydrazide]	29.5 mg/kg		100%	136 mg/kg	290 mg/kg	9.8	4.6	100%		
CCCC(CCC)C(=O)[O-].[Na+] [Sodium Valproate, Sodium valproate, reference compound]	189 mg/kg	100%		470 mg/kg					5.2	985 mg/kg
